Laboratory results: PubChem BioAssay AID686917 (Sanford-Burnham Center for Chemical Genomics, 2013)
“And” between values parts separate entries of the source, which are not always exact repeats. Identical values can stand only once. The source made the active and inactive calls.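 The calls were made as follows: active = IC50 at or below 100 µM in the confirmatory dose response; inactive = the rest.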

These compounds were tested against 26S proteasome non-ATPase regulatory subunit 14 (Homo sapiens) (UniProt O00487) (assay: Rpn11 (PSMD14) deubiquitinase inhibitors, dose response, biochemical, fluorescence polarization, human 26S proteasome, uHTS hits (AID 686917)). Settings: purified human 26S proteasome, Ub4-pepOG fluorescence polarization.
Sequence of 26S proteasome non-ATPase regulatory subunit 14 (Homo sapiens) (O00487 whole entry, looked up): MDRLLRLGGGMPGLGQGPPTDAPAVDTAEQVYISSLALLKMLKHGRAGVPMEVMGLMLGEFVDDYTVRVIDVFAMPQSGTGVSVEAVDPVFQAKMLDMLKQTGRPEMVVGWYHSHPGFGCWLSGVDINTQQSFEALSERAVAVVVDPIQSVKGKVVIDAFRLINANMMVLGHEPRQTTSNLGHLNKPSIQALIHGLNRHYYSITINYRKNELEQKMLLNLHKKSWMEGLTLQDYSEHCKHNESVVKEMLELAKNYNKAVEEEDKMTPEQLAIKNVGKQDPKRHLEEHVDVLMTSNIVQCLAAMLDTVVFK

| IC50 | Structure (SMILES) |
| --- | --- |
| 8.43 µM | O=C(Sc1cccc2cccnc12)c1cccc(C(F)(F)F)c1 |
| 10 µM | O=C(Sc1cccc2cccnc12)c1ccc([N+](=O)[O-])cc1 |
| 4.37 µM | COc1ccc(C(=O)Sc2cccc3cccnc23)cc1 |
| 5.01 µM | COC(=O)[C@H](C)NC(=O)c1cnc2c(SSc3cccc4cc(C(=O)N[C@@H](C)C(=O)OC)cnc34)cccc2c1 |
| 5.35 µM | O=C(Sc1cccc2cccnc12)c1ccc(F)cc1 |
| 5.81 µM | O=C(Sc1cccc2cccnc12)c1ccccc1Cl |
| > 99 µM (inactive) | O=C(Sc1cccc2cccnc12)c1ccccc1F |
| 5.84 µM | C[C@@H](C(=O)O)N(C)C(=O)c1cnc2c(SSc3cccc4cc(C(=O)N(C)[C@@H](C)C(=O)O)cnc34)cccc2c1 |
| 1.48 µM | O=C(Sc1cccc2cccnc12)c1c(Cl)cccc1Cl |
| 1.27 µM | Cc1cccc(C(=O)Sc2cccc3cccnc23)c1 |
| 3.42 µM | COC(=O)[C@@H]1CCCN1C(=O)c1cnc2c(SSc3cccc4cc(C(=O)N5CCC[C@H]5C(=O)OC)cnc34)cccc2c1 |
| 4.31 µM | COC(=O)[C@H](C)N(C)C(=O)c1cnc2c(SSc3cccc4cc(C(=O)N(C)[C@@H](C)C(=O)OC)cnc34)cccc2c1 |
| 1.8 µM | CC[C@@H](C)[C@H](NC(=O)c1cnc2c(SSc3cccc4cc(C(=O)N[C@H](C(=O)O)[C@H](C)CC)cnc34)cccc2c1)C(=O)O |
| 4.86 µM | COC(=O)[C@H](CO)NC(=O)c1cnc2c(SSc3cccc4cc(C(=O)N[C@@H](CO)C(=O)OC)cnc34)cccc2c1 |
| 9.67 µM | O=C(Sc1cccc2cccnc12)c1ccc(F)cc1F |
| 4 µM | COC(=O)[C@@H](NC(=O)c1cnc2c(SSc3cccc4cc(C(=O)N[C@H](C(=O)OC)C(C)C)cnc34)cccc2c1)C(C)C |
| 3.73 µM | O=C(Sc1cccc2cccnc12)c1ccc(C(F)(F)F)cc1 |
| 11 µM | Cc1ccccc1C(=O)Sc1cccc2cccnc12 |
| 1.26 µM | O=C(O)c1cnc2c(SSc3cccc4cc(C(=O)O)cnc34)cccc2c1 |
| 0.663 µM | O=C(Sc1cccc2cccnc12)C1CCCCC1 |
| 4.36 µM | COC(=O)[C@H](C)NC(=O)c1ccnc2c(SSc3cccc4c(C(=O)N[C@@H](C)C(=O)OC)ccnc34)cccc12 |
| 15.8 µM | N#Cc1cccc(C(=O)Sc2cccc3cccnc23)c1 |
| 2.46 µM | CC(C)Cc1ccc(C(=O)Sc2cccc3cccnc23)cc1 |
| > 99 µM (inactive) | N#Cc1ccc(C(=O)Sc2cccc3cccnc23)cc1 |

| IC50 | Structure (SMILES) |
| --- | --- |
| 1.18 µM | O=C(Sc1cccc2cccnc12)c1cccc(Cl)c1 |
| 14 µM | O=C(Sc1cccc2cccnc12)c1ccc2c(c1)OCO2 |
| 3.54 µM | COc1ccc(C(=O)Sc2cccc3cccnc23)cc1F |
| 3.69 µM | O=C(Sc1cccc2cccnc12)c1ccc(F)c(F)c1 |
| 1.49 µM | COc1cccc(C(=O)Sc2cccc3cccnc23)c1 |
| 3.83 µM | O=C(Sc1cccc2cccnc12)c1ccccc1Br |
| 1.7 µM | O=C(O)[C@@H]1CCCN1C(=O)c1cnc2c(SSc3cccc4cc(C(=O)N5CCC[C@H]5C(=O)O)cnc34)cccc2c1 |
| 4.9 µM | CC(C)(C)OC(=O)CCNC(=O)c1cnc2c(SSc3cccc4cc(C(=O)NCCC(=O)OC(C)(C)C)cnc34)cccc2c1 |
| 9.19 µM | COc1ccc(C(=O)Sc2cccc3cccnc23)cc1OC |
| 3.97 µM | O=C(Sc1cccc2cccnc12)c1cccc2ccccc12 |
| 3.7 µM and 14.4 µM | CCOc1ccccc1C(=O)Sc1cccc2cccnc12 |
| 5.27 µM | O=C(Sc1cccc2cccnc12)c1ccccc1[N+](=O)[O-] |
| 5.32 µM | COC(=O)[C@H](CC(C)C)NC(=O)c1cnc2c(SSc3cccc4cc(C(=O)N[C@@H](CC(C)C)C(=O)OC)cnc34)cccc2c1 |
| 2.54 µM | CC(C)C[C@H](NC(=O)c1cnc2c(SSc3cccc4cc(C(=O)N[C@@H](CC(C)C)C(=O)O)cnc34)cccc2c1)C(=O)O |
| 1.77 µM | CC[C@@H](C)[C@H](NC(=O)c1cnc2c(SSc3cccc4cc(C(=O)N[C@H](C(=O)OC)[C@@H](C)CC)cnc34)cccc2c1)C(=O)OC |
| 4.12 µM | O=C(Sc1cccc2cccnc12)c1ccccc1OC(F)(F)F |
| 5.21 µM | O=C(Sc1cccc2cccnc12)c1ccccc1 |
| 2.66 µM | CCCc1ccc(C(=O)Sc2cccc3cccnc23)cc1 |
| 3.4 µM | COC(=O)c1cnc2c(SSc3cccc4cc(C(=O)OC)cnc34)cccc2c1 |
| 4.59 µM and 2.1 µM | COc1ccccc1C(=O)Sc1cccc2cccnc12 |
| 14.6 µM | Cc1ccc(C(=O)Sc2cccc3cccnc23)cc1 |
| 2.18 µM | O=C(Sc1cccc2cccnc12)c1ccccc1I |
| 3.43 µM | COC(=O)C[C@H](NC(=O)c1cnc2c(SSc3cccc4cc(C(=O)N[C@@H](CC(=O)OC)C(=O)OC)cnc34)cccc2c1)C(=O)OC |
